# Measured values reported in US11649228B2, “Zinc indicators for cellular imaging” (The Board of Regents of the University of Texas System, priority 2018, dated 2023).
# Legend:
# [1] = system: primary mouse islet cells; experiment: Flow cytometry analysis and FACS of mouse islet cells labeled with ZIGIR-2 and Ex4-Cy5; format: cell-based
# Description: Among islet endocrine cells, β-cells have long been known to contain a high level of total Zn^2+ in their secretory granules. However, it remains unclear how Zn^2+ activities differ among different types of secretory granules including the glucagon granule and the somatostatin granule. To address the question, the inventors combined ZIGIR-2 and flow cytometry to analyze the granular Zn^2+ activity in primary mouse islet cells. To facilitate distinguishing different endocrine cells, they labeled mouse islets with a β-cell marker, a Cy5 dye conjugate of Exendin-4 peptide (Ex4) (Scheme 3). Ex4 is a high affinity ligand of the glucagon like peptide 1 receptor (GLP-1R). Since GLP-1R is highly expressed in mouse islet β-cells,^46 fluorescently labeled conjugates of Ex4 are rapidly internalized into β-cells through receptor-mediated endocytosis to mark β-cells.^36, 47 After labeling mouse islets with Ex4-Cy5, the inventors dispersed the islets into single cells and labeled them with ZIGIR-2 (FIG. 10A). […] To identify each subset of cells, the inventors isolated them by FACS and analyzed the sorted cells by immunofluorescence using antibodies against insulin, glucagon, and somatostatin. The immunofluorescence result confirmed that P1 and P2 subsets were essentially pure β-cells (99±0.3%, N=3) and α-cells (98±0.5%, N=3), respectively (FIG. 10C). […] The remaining ˜20% of cells in P3 and most cells in P4 were not stained by any of the three hormone antibodies. These cells likely represented rare […], islet endothelial cells or lymphoid cells, and residual exocrine cells.
# Mouse islets were isolated as previously described (Li et al., 2011) by perfusing Collagenase P (Roche, 1.4 mg/mL in HBSS with 5 mM glucose) through the common bile duct. Following a 15 min digestion at 37° C., the pancreas digestion was washed twice with HBSS by centrifugation and the islets were hand-picked under a dissection scope. Isolated islets were cultured 2-4 hours in RPMI-1640 medium (GIBCO, #11875-093) supplemented with 10% (v/v) FBS, 2.0 mM sodium-pyruvate, 100 U/mL penicillin and […] at 37° C. in 5% CO2. To distinguish islet β-cells from non-β cells, islets were labeled with a fluorescently labeled exendin-4 derivative as previously described (Kim et al., 2017). Briefly, Ex4-Cy5 (100 nM) was added to the culture medium 2 hours before islet dispersion. ZIGIR labeling was carried out subsequently after islet dispersion. Mouse islets were dispersed with 0.05% Trypsin solution in DPBS at 37° C. for 15 min. The dispersed islet cells were incubated with 0.5 μM ZIGIR-1 (or ZIGIR-2) at 37° C. for 15 min in the cell sorting buffer (SAB Buffer containing 3 mM glucose, 0.5% BSA and 0.1 mg/mL DNase I (Roche)). The cells were then washed twice with ice-cold SAB and resuspended in the cell sorting buffer. The labeled cells were analyzed by flow cytometry on a LSRFortessa cell analyzer (BD Biosciences). DAPI (200 ng/mL) was added to the cell suspension prior to flow cytometry to distinguish live cells (DAPI negative) from dead cells (DAPI positive). Only live cells were analyzed.
# [2] = system: MIN-6 β cells; experiment: Confocal imaging of ZIGIR-labeled live β cells; format: cell-based, mouse
# Protocol: To assess ZIGIRs' ability for imaging granular Zn^2+ in living cells, an insulin secreting β cell (MIN-6 cell) was labeled with ZIGIRs. After dye loading (0.5 μM for 15 min) and washing, cells were imaged by confocal laser scanning microscopy (CLSM). […] After raising cellular Zn^2+ level by adding a Zn^2+ ionophore (pyrithione, 10 μM) and Zn^2+ (20 μM), a drastic enhancement of ZIGIR-2 signal was observed. […] Subsequent washout of zinc/pyrithione and addition of a Zn^2+ chelator TPEN depleted cellular Zn^2+ activity and dampened ZIGIR-2 intensity to nearly the background level (FIGS. 6D & 6E). Overall ZIGIR-2 intensity increased about 12-fold going from the low Zn^2+ (TPEN) to the high Zn^2+ state (Zn^2+/pyrithione), with a cell-to-cell variation of 12.04±4.8 fold (mean±SD, N=20 cells).
# MIN-6 β cells were cultured as previously described (Li et al., 2011). HEK293 cells were cultured in DMEM medium supplemented with 10% FBS and 1% Penicillin/Streptomycin. T47D cells were cultured in RPMI-1640 medium supplemented with 10% FBS, 0.5% non-essential amino acids, 1 mM sodium pyruvate, 10 μg/mL geneticin and 0.01 mg/mL insulin. H1299 cells were cultured in RPMI-1640 medium supplemented with 10% FBS. All cells were maintained at 37° C. with 5% CO2. For cell imaging, cells were seeded in 35-mm petri dishes with glass bottoms (MatTek) and cultured for ˜24 hours to reach ˜50% confluence. Prior to labeling, cells were washed with a secretion assay buffer (SAB) containing 114 mM NaCl, 4.7 mM KCl, 1.2 mM KH2PO4, 2.5 mM CaCl2, 1.16 mM MgSO4, 3 mM glucose, and 20 mM Hepes (pH 7.4). Cells were then incubated with ZIGIRs (0.5-1 μM) in SAB at 37° C. for 15 min, and washed with SAB before imaging on a Zeiss LSM 780 confocal microscope using 561 nm laser for exciting ZIGIR-2 (Em 570-650 nm) and 514 nm laser for exciting ZIGIR-1 (Em 516-650 nm). LysoTracker Green (ThermoFisher Scientific) was used at 0.4 μM to label acidic organelles and was added to cells <5 min before imaging. […] ZIGIR colocalization with LysoTracker Green was analyzed and quantified with JACoP plugin of ImageJ.
# [3] = ZIGIR-2 and Ex4-Cy5 labeling, N=3
smiles,measurement,setting,value
CN(C)c1ccc2c(-c3ccc(NCCN(CCc4ccccn4)Cc4ccccn4)cc3C(=O)[O-])c3ccc(=[N+](C)C)cc-3oc2c1 [ZIGIR-2],median fluorescence intensity (MFI) in α-cells versus δ-cells,[1],nearly an order of magnitude stronger
same,"median fluorescence intensity (MFI) in α-cells, weaker than in β-cells",[1],about 5 times
same,α-cells in sorted P2 subset,[1]; [3],98±0.5%
same,β-cells in sorted P1 subset,[1]; [3],99±0.3%
same,δ-cells in sorted P3 subset,[1]; [3],81±4.8%
same,ability to resolve islet cells into subsets by granular Zn^2+ activity,[1]; compared with commercially available Zn^2+ sensors,able to resolve islet cells into distinct subsets
same,stability of intensity of labeled granules on repetitive imaging,"[2]; MIN6 cells, imaged every 5 sec over ~30 min",remains stable
same,increase of intensity from low Zn^2+ (TPEN) to high Zn^2+ state (Zn^2+/pyrithione),"[2]; MIN-6 cells, overall",about 12 fold
same,"increase of intensity from TPEN to Zn^2+/pyrithione, cell-to-cell variation","[2]; mean±SD, N=20 cells",12.04±4.8 fold
